From patent US20260356856A1, “KRAS G12S AND G12C INHIBITORS” (MIRATI THERAPEUTICS, INC., priority 2023, published 2026)

How the values were obtained:
KRas G12C = target: T1, KRas G12C (Homo sapiens, UniProt P01116, G12C); assay: KRas binding assay, TR-FRET displacement of Cy5 labelled tracer; conditions: 60-minute incubation at room temperature, 1% DMSO, pH 7.5
T1 construct: Biotinylated KRas (corresponding to amino acids 1-169, produced at Accelegan Inc.); biotin (biotinylated); purchased Accelegan Inc
Outline: (§1)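 TR-FRET tracer-displacement readout after 60 min at room temperature, using KRas residues 1-169 (biotinylated) with terbium streptavidin and a Cy5 tracer. Buffer: 50 mM HEPES pH 7.5, 5 mM MgCl2, 0.005% Tween-20, 1 mM DTT, 1% DMSO final. IC50 from 4-parameter fit of POC data.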

KRas G12S = target: T2, KRas G12S (Homo sapiens, UniProt P01116, G12S); assay: as above; conditions: 60-minute incubation at room temperature, 1% DMSO, pH 7.5
T2 construct: Biotinylated KRas (corresponding to amino acids 1-169, produced at Accelegan Inc.); biotin (biotinylated); purchased Accelegan Inc
Outline: as §1

KRas WT = target: T3, KRas WT (Homo sapiens, UniProt P01116); assay: as above; conditions: 60-minute incubation at room temperature, 1% DMSO, pH 7.5
T3 construct: Biotinylated KRas (corresponding to amino acids 1-169, produced at Accelegan Inc.); biotin (biotinylated); purchased Accelegan Inc
Outline: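 Biotinylated KRas (residues 1-169) was incubated with tracer, terbium-streptavidin and compound at 1% DMSO final in 50 mM HEPES pH 7.5 containing 5 mM MgCl2, 0.005% Tween-20 and 1 mM DTT. The plate was read after 60 min at room temperature, and percent-of-control data were fit to a 4-parameter IC50 equation.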

[1] = target: T4, KRas-mediated phosphorylation of ERK in MKN1 cells (Homo sapiens, UniProt P01116); assay: Inhibition of KRas-mediated phosphorylation of ERK (HTRF), MKN1 cells; format: cell-based; conditions: MKN1 cells (KRas WT); HTRF pERK; 3 h incubation
T4 construct: pERK HTRF read-out
Experimental: Inhibition of KRas Phosphorylation of ERK (HTRF) by Exemplary Compounds of Formula (Ia) or (Ib)
Cisbio HTRF Advanced pERK Assay Catalog #64AERPEH • Cells: MKN1, PSN1 • Procedure: • 1. Day 1: Seed 6,000 cells/well −25 μl/well in 384-well white solid bottom plate; RPM1_10% FBS. Incubate overnight at 37 °C/5% CO2. • 2.

[2] = target: T5, KRas-mediated phosphorylation of ERK in A549 cells (Homo sapiens, UniProt P01116, G12S); assay: Inhibition of KRas-mediated phosphorylation of ERK (HTRF), A549 cells; format: cell-based; conditions: HTRF pERK, 3 h incubation
T5 construct: pERK HTRF read-out

[3] = target: T6, KRas-mediated phosphorylation of ERK in H358 cells (Homo sapiens, UniProt P01116, G12C); assay: Inhibition of KRas-mediated phosphorylation of ERK (HTRF), H358 cells; format: cell-based; conditions: HTRF pERK, 3 h incubation
T6 construct: pERK HTRF read-out
T6 sequence (P01116 1-188 isoform P01116-2 G12C): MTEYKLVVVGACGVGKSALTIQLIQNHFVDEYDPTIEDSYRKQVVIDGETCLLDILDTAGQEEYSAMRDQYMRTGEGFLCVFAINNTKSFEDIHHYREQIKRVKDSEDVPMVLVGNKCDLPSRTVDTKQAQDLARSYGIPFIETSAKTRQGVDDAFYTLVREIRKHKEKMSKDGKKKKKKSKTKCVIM

T2 sequence (P01116 1-169 isoform P01116-2 G12S): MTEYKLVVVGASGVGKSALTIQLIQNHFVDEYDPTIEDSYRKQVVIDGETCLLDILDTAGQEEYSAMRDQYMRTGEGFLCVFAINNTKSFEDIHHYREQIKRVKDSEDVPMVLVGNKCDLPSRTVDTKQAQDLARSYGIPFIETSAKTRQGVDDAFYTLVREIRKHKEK
T5 sequence (P01116 1-188 isoform P01116-2 G12S): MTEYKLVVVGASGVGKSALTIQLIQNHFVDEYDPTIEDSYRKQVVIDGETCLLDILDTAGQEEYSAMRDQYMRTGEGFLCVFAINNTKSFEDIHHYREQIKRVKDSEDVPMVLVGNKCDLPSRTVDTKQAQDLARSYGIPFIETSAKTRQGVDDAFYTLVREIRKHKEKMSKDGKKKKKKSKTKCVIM
T1 sequence (P01116 1-169 isoform P01116-2 G12C): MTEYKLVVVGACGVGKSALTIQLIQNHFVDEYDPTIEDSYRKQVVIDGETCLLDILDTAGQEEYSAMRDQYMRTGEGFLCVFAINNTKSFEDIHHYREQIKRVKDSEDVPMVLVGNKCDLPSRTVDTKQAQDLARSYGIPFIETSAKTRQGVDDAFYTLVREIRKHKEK
T4 sequence (P01116 1-188 isoform P01116-2): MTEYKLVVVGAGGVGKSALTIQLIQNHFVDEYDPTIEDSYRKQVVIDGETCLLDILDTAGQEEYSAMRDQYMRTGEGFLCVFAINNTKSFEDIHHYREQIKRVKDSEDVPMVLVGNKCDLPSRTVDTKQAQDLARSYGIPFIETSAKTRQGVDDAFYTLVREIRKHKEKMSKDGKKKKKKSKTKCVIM
T3 sequence (P01116 1-169 isoform P01116-2): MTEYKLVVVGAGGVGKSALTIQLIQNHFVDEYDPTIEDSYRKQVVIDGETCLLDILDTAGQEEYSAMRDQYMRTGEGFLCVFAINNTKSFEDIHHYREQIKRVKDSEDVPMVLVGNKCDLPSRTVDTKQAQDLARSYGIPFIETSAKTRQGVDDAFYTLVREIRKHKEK

SMILES	IC50 (KRas G12C)	IC50 (KRas G12S)	IC50 (KRas WT)	IC50 [1]	IC50 [2]	IC50 [3]
CCc1c(F)ccc2cc(O)cc(-c3ncc4c(NC[C@H]5C[C@@H]5C(=O)n5ccc(C)n5)nc(OC[C@@]56CCCN5C[C@H](F)C6)nc4c3F)c12 [Example 159, ((1S,2S)-2-(((7-(8-ethyl-7-fluoro-3-hydroxynaphthalen-1-yl)-8-fluoro-2-(((2R,7aS)-2-fluorotetrahydro-1H-pyrrolizin-7a(5H)-yl)methoxy)pyrido[4,3-d]pyrimidin-4-yl)amino)methyl)cyclopropyl)(3-methyl-1H-pyrazol-1-yl)methanone]	6 nM	4 nM	15 nM	57 nM	6 nM	108 nM
CC(=O)N(C)C(=O)[C@@H]1C[C@H]1CNc1nc(OC[C@@]23CCCN2C[C@H](F)C3)nc2c(F)c(-c3ccc(F)c4sc(N)c(C#N)c34)c(Cl)cc12 [Example 238, trans-N-acetyl-2-(((7-(2-amino-3-cyano-7-fluorobenzo[b]thiophen-4-yl)-6-chloro-8-fluoro-2-(((2R,7aS)-2-fluorotetrahydro-1H-pyrrolizin-7a(5H)-yl)methoxy)quinazolin-4-yl)amino)methyl)-N-methylcyclopropane-1-carboxamide]	11 nM	14 nM	10 nM	40 nM	145 nM	84 nM
CN(C)Cc1ccn(C(=O)C2CCCN(c3nc(OC[C@@]45CCCN4C[C@H](F)C5)nc4c(F)c(-c5ccc(F)c6sc(N)c(C#N)c56)c(Cl)cc34)CC2)n1 (stereo partly drawn) [Example 205, 2-amino-4-(6-chloro-4-(4-(3-((dimethylamino)methyl)-1H-pyrazole-1-carbonyl)azepan-1-yl)-8-fluoro-2-(((2R,7aS)-2-fluorotetrahydro-1H-pyrrolizin-7a(5H)-yl)methoxy)quinazolin-7-yl)-7-fluorobenzo[b]thiophene-3-carbonitrile]	2 nM	4 nM	7 nM	540 nM	25 nM	59 nM
CCc1c(F)ccc2cc(O)cc(-c3ncc4c(N5CCC(C(=O)N(C)C(C)=O)CC5)nc(OC[C@@]56CCCN5C[C@H](F)C6)nc4c3F)c12 [Example 155, N-acetyl-1-(7-(8-ethyl-7-fluoro-3-hydroxynaphthalen-1-yl)-8-fluoro-2-(((2R,7aS)-2-fluorotetrahydro-1H-pyrrolizin-7a(5H)-yl)methoxy)pyrido[4,3-d]pyrimidin-4-yl)-N-methylpiperidine-4-carboxamide]	204 nM	135 nM	140 nM	671 nM	445 nM	2530 nM
CCc1c(F)ccc2cc(O)cc(N3CCc4c(nc(OC[C@@]56CCCN5C[C@H](F)C6)nc4N4CCCC(C(=O)n5ccc(C)n5)CC4)C3)c12 (stereo partly drawn) [Example 145, (1-(7-(8-ethyl-7-fluoro-3-hydroxynaphthalen-1-yl)-2-(((2R,7aS)-2-fluorotetrahydro-1H-pyrrolizin-7a(5H)-yl)methoxy)-5,6,7,8-tetrahydropyrido[3,4-d]pyrimidin-4-yl)azepan-4-yl)(3-methyl-1H-pyrazol-1-yl)methanone]	237 nM	27 nM	331 nM	4010 nM	137 nM	2810 nM
CCc1c(F)ccc2cc(O)cc(-c3ncc4c(NCCCC(=O)N(C)C(C)=O)nc(OC[C@@]56CCCN5C[C@H](F)C6)nc4c3F)c12 [Example 261, N-acetyl-4-((7-(8-ethyl-7-fluoro-3-hydroxynaphthalen-1-yl)-8-fluoro-2-(((2R,7aS)-2-fluorotetrahydro-1H-pyrrolizin-7a(5H)-yl)methoxy)pyrido[4,3-d]pyrimidin-4-yl)amino)-N-methylbutanamide]	14 nM	15 nM	23 nM	159 nM	67 nM	159 nM
CC(=O)N(C)C(=O)C1CCCN(c2nc(OC[C@@]34CCCN3C[C@H](F)C4)nc3c(F)c(-c4ccc(F)c5sc(N)c(C#N)c45)c(Cl)cc23)CC1 (stereo partly drawn) [Example 255, N-acetyl-1-(7-(2-amino-3-cyano-7-fluorobenzo[b]thiophen-4-yl)-6-chloro-8-fluoro-2-(((2R,7aS)-2-fluorotetrahydro-1H-pyrrolizin-7a(5H)-yl)methoxy)quinazolin-4-yl)-N-methylazepane-4-carboxamide]	14 nM	11 nM	14 nM	41 nM	28 nM	29 nM
Cc1ccn(C(=O)CCCCN(C)c2nc(OC[C@@]34CCCN3C[C@H](F)C4)nc3c(F)c(-c4ccc(F)c5sc(N)c(C#N)c45)c(Cl)cc23)n1 [Example 199, 2-amino-4-(6-chloro-8-fluoro-2-(((2R,7aS)-2-fluorotetrahydro-1H-pyrrolizin-7a(5H)-yl)methoxy)-4-(methyl(5-(3-methyl-1H-pyrazol-1-yl)-5-oxopentyl)amino)quinazolin-7-yl)-7-fluorobenzo[b]thiophene-3-carbonitrile]	17 nM	27 nM	26 nM	236 nM	4320 nM	432 nM
CCc1c(F)ccc2cc(O)cc(-c3ncc4c(N5CC6CC(C(=O)N(C)C(C)=O)CC6C5)nc(OC[C@@]56CCCN5C[C@H](F)C6)nc4c3F)c12 (stereo partly drawn) [Example 279, N-acetyl-2-(7-(8-ethyl-7-fluoro-3-hydroxynaphthalen-1-yl)-8-fluoro-2-(((2R,7aS)-2-fluorotetrahydro-1H-pyrrolizin-7a(5H)-yl)methoxy)pyrido[4,3-d]pyrimidin-4-yl)-N-methyloctahydrocyclopenta[c]pyrrole-5-carboxamide]	334 nM	188 nM	332 nM	1690 nM	276 nM	4900 nM
N#Cc1c(N)sc2c(F)ccc(-c3c(Cl)cc4c(N5CCC(C(=O)Oc6ccccc6)CC5)nc(OC[C@@]56CCCN5C[C@H](F)C6)nc4c3F)c12 [Example 287, phenyl 1-(7-(2-amino-3-cyano-7-fluorobenzo[b]thiophen-4-yl)-6-chloro-8-fluoro-2-(((2R,7aS)-2-fluorotetrahydro-1H-pyrrolizin-7a(5H)-yl)methoxy)quinazolin-4-yl)piperidine-4-carboxylate]	6 nM	16 nM	170 nM	360 nM	104 nM	13 nM
CCc1c(F)ccc2cc(O)cc(-c3ncc4c(N5CCN(C(=O)n6nccn6)CC5)nc(OC[C@@]56CCCN5C[C@H](F)C6)nc4c3F)c12 (single isomer, unassigned) [Example 152]	73 nM	84 nM	39 nM	251 nM	2180 nM	83 nM
Cc1ccn(C(=O)CCCN(C)c2cc(O[C@@H](C)[C@@H]3CCCN3C)nc(-c3noc([C@@]4(C)CCCc5sc(N)c(C#N)c54)n3)n2)n1 [Example 322, (S)-2-amino-4-methyl-4-(3-(4-(methyl (4-(3-methyl-1H-pyrazol-1-yl)-4-oxobutyl)amino)-6-((S)-1-((S)-1-methylpyrrolidin-2-yl)ethoxy)pyrimidin-2-yl)-1,2,4-oxadiazol-5-yl)-4,5,6,7-tetrahydrobenzo[b]thiophene-3-carbonitrile]	10 nM	20 nM	525 nM	7310 nM	96 nM	9590 nM
CCc1c(F)ccc2cc(O)cc(-c3ncc4c(N5C[C@H]6C[C@H](C(=O)n7ccc(C)n7)[C@H]6C5)nc(OC[C@@]56CCCN5C[C@H](F)C6)nc4c3F)c12 [Example 161, ((1S,5S,6S)-3-(7-(8-ethyl-7-fluoro-3-hydroxynaphthalen-1-yl)-8-fluoro-2-(((2R,7aS)-2-fluorotetrahydro-1H-pyrrolizin-7a(5H)-yl)methoxy)pyrido[4,3-d]pyrimidin-4-yl)-3-azabicyclo[3.2.0]heptan-6-yl)(3-methyl-1H-pyrazol-1-yl)methanone]	86 nM	185 nM	282 nM	7280 nM	717 nM	> 10000 nM
CCc1c(F)ccc2cc(O)cc(-c3ncc4c(N5CCC(C(=O)n6cc(C)cn6)CC5)nc(OC[C@@]56CCCN5C[C@H](F)C6)nc4c3F)c12 [Example 57, (1-(7-(8-ethyl-7-fluoro-3-hydroxynaphthalen-1-yl)-8-fluoro-2-(((2R,7aS)-2-fluorotetrahydro-1H-pyrrolizin-7a(5H)-yl)methoxy)pyrido[4,3-d]pyrimidin-4-yl)piperidin-4-yl)(4-methyl-1H-pyrazol-1-yl)methanone]	96 nM	66 nM	107 nM	8500 nM	200 nM	5580 nM
